Values quoted from earlier work in patent EP2322149A1, “Methods and compositions for the treatment of ischemia” (Universidad del Pais Vasco, priority 2009, dated 2011).

Tests used:
P2X5 = P2X5 (Homo sapiens, UniProt Q93086); conditions: cited from earlier work
P2X7 = molecular target: T1, P2X7 (Homo sapiens, UniProt Q99572); conditions: cited from earlier work
T1 sequence (Q99572 1-595): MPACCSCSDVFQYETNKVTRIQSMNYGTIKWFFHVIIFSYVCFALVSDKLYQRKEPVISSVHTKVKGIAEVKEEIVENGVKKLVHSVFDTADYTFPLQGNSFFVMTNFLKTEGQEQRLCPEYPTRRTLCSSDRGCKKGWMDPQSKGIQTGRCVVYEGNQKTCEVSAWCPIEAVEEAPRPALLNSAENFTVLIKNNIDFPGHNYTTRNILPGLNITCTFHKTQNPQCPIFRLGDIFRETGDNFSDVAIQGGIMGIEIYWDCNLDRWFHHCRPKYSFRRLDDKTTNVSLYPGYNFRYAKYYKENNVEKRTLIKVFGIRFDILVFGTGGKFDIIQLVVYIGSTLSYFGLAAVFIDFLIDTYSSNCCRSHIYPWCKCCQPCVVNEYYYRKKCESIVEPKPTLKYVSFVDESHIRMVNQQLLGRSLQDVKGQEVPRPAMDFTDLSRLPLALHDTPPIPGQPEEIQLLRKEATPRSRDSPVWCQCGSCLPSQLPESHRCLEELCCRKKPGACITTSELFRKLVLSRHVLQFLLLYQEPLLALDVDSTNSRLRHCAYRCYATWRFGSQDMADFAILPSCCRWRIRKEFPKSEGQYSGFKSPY

P2X4 = molecular target: T2, P2X4 (Homo sapiens, UniProt Q99571); conditions: read-out: IC50 P2X4; cited from earlier work
T2 sequence (Q99571 1-388): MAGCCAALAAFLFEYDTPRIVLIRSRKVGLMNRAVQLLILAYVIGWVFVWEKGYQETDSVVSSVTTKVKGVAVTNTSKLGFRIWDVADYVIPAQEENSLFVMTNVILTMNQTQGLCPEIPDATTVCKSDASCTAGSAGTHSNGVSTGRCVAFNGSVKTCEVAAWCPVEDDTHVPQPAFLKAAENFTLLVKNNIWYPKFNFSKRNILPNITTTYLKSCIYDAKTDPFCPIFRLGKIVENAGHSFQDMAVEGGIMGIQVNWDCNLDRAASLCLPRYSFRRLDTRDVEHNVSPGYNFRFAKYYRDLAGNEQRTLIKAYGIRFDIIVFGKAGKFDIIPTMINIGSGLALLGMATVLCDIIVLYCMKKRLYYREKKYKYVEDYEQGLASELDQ

P2X2 = molecular target: T3, P2X2 (Homo sapiens, UniProt Q9UBL9); conditions: read-out: IC50 P2X2; cited from earlier work
T3 sequence (Q9UBL9 1-471): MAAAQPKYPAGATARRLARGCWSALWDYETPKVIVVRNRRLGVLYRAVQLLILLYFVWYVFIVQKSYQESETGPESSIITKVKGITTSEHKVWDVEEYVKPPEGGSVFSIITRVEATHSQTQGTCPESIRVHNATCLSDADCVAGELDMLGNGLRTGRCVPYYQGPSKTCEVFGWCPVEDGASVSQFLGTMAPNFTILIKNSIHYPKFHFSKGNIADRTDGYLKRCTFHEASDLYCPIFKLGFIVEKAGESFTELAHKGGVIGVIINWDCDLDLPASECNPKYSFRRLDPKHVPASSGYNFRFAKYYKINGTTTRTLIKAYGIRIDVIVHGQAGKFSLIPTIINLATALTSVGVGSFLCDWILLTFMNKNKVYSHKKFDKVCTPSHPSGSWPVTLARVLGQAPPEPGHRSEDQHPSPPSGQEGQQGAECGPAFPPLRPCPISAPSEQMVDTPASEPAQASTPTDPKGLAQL

P2X3 = molecular target: T4, P2X3 (Homo sapiens, UniProt P56373); conditions: read-out: IC50 P2X3; cited from earlier work
T4 sequence (P56373 1-397): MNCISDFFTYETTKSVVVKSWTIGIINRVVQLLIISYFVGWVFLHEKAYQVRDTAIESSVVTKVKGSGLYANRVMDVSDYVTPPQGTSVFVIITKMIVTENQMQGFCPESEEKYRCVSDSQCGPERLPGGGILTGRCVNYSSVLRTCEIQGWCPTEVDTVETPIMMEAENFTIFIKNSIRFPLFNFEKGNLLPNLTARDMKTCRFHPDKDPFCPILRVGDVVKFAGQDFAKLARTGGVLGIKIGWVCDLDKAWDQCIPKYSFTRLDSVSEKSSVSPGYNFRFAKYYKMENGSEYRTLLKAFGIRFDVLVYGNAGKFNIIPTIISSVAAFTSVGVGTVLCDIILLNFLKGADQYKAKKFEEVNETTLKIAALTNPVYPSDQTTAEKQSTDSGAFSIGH

P2X6 = P2X6 (Homo sapiens, UniProt O15547); conditions: read-out: IC50 P2X6; cited from earlier work
Sequence of P2X6 (O15547 whole entry, species assumed): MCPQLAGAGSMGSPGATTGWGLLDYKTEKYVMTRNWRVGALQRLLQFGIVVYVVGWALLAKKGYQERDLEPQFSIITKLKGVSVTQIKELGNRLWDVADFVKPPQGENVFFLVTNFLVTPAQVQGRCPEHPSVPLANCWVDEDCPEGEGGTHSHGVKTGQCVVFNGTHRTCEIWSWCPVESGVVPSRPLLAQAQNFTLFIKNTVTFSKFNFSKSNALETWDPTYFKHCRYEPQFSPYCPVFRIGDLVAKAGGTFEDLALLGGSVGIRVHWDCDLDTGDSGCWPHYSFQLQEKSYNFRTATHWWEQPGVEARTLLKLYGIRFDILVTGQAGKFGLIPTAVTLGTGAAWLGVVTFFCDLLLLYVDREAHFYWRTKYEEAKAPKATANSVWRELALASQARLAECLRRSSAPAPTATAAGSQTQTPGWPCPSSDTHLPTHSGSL

P2X1 = molecular target: T5, P2X1 (Homo sapiens, UniProt P51575); conditions: read-out: IC50 P2X1; cited from earlier work
T5 sequence (P51575 1-399): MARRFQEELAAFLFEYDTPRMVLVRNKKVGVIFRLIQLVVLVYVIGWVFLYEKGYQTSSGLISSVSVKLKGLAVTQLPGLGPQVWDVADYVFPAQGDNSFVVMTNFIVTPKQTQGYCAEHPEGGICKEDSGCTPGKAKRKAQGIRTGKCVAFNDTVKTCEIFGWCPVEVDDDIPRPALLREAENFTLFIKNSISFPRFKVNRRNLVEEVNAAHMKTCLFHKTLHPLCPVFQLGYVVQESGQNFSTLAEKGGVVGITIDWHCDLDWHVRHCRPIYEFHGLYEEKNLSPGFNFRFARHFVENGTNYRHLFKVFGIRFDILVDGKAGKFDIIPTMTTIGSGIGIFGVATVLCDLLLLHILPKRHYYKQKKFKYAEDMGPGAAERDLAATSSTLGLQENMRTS

Measured: IC50

Sequence of P2X5 (Q93086 whole entry, species assumed): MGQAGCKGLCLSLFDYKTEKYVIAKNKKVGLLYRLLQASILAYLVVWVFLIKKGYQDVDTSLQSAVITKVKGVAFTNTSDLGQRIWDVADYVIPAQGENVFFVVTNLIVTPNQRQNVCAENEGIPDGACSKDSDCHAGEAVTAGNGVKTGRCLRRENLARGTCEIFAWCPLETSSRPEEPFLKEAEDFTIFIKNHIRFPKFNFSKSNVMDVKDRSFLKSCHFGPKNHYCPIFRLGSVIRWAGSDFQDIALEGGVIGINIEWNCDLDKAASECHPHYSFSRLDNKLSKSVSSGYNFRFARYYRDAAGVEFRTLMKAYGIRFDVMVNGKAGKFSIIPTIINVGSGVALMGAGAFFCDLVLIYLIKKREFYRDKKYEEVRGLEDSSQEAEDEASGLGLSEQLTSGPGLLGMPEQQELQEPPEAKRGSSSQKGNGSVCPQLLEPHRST

Cc1cc(-c2ccc(/N=N/c3ccc4c(S(=O)(=O)O)cc(S(=O)(=O)O)c(N)c4c3O)c(C)c2)ccc1/N=N/c1ccc2c(S(=O)(=O)O)cc(S(=O)(=O)O)c(N)c2c1O [Evans Blue]
1400 µM: P2X3 | P2X1
1 to 400 µM: all other assays above
